Structures are written as SMILES. Several values for one entry are separate records, joined by “and”; a condition that tells them apart may be missing. Equal values may be shown once. Some results are limits rather than exact numbers.

Data set [1] concerns human Low Density Lipoprotein. Briefly: inhibition of copper catalyzed LDL autoxidation (FOX assay). Type of data set: biochemical. The method, then: The antioxidant performance of test compounds was evaluated by measuring the extent of low density lipoprotein hydroxyperoxide by copper catalyzed autoxidation using a published dye based color assay (FOX Assay, see Zadeh, “Methods in Enzymology”, 300, 58 (1999)). The assay is easily performed and read in a 96-well microtitre plate. Microtitre plate readers assure rapid measurement of optical density which gives precise replicate measurements. Samples are evaluated in duplicate of triplicate (n=2 or n=3) with FOX reagent to indicate the level of LDL-hydroperoxide formed. Samples containing only LDL and copper sulfate without test materials, served as a positive control for comparison with identical mixtures containing test materials (Tables 1-6). Inhibition is characterized by a lower optical density than that obtained without test materials (LDL and copper sulfate alone).
Briefly, the procedure involved mixing human Low Density Lipoprotein (Sigma Chemical Company L2139) at a concentration of between 200-1000 μg/mL in phosphate buffered saline pH−7.4 (Pierce #28372 BupH™ with copper sulfate to a final concentration of 10 μg/mL. Incubation at 25° C. or 37° C., open to air effected oxidation, the mixture was sampled at time zero and between 3 and 20 hours of incubation for measurement of hydroperoxide in the FOX assay. Samples 25-30 μL were diluted with 10 volumes of FOX reagent (ferrous ammonium sulfate and […], see Zadeh, noted above) and allowed to stand for 30 minutes. Thereafter they were read in a microtitre plate reader.
The inhibition of LDL oxidation by tricine, bicine, monocine, vitamin E, glycine-glycine (Good's buffer compound XIV) and seaweed extract was studied in the procedure above. Using the spectrophotometric technique known as the FOX assay, as described in Jiang, Z., et al., “Ferrous Ion Oxidation in Presence of Xylenol Orange for Detection of Lipid Hydroperoxide in Low Density Lipoprotein”, Analytical Biochemistry, Vol. 202, pp. 384-9 (1992), the oxidation of LDL's in the presence of known hydroxyl radical scavengers (vitamin E and Good's buffer glycine-glycine), and in the presence of therapeutic agents in accordance with the present invention (tricine, bicine, seaweed extract), was monitored. […] Norman Good et al., “Hydrogen Ion Buffers For Biological Research,” Biochemistry, vol. 5, p. 467 (1966). […] Table 6 is a comparison of tricine, bicine, monocine and vitamin E oxidation inhibition of LDL at 37° C., average n=3 measurement with standard deviation.

The subject of data set [2] is Mongolian gerbils. Briefly: gerbil forebrain ischemia (bilateral carotid occlusion): locomotor activity. Conditions: individual gerbil, Group 3, approximately 96 hours after surgery, first 15 minute period. The format is in vivo, Mongolian gerbil.
Data set [3] relates to New Zealand white rabbits. Briefly: atherosclerotic lesions in thoracic aorta of cholesterol-fed rabbits. Conditions: 12 weeks. The format is in vivo, rabbit. The source says: Ten female new Zealand white rabbits were divided into two groups of five (5) rabbits and subjected to an identical diet of Purina® rabbit chow supplemented with 1% cholesterol. […] A second group of five (5) rabbits received 1% tricine in their drinking water. Both groups were maintained under this feeding protocol for a period of twelve (12) weeks. Plasma samples were taken at study initiation and at two (2) week intervals throughout the study for measurement of total cholesterol. Systemic observations and body weights were regularly recorded. At twelve (12) weeks, the thoracic aorta was harvested from each animal, sliced longitudinally and preserved in 10% neutral formalin for subsequent analysis. Each aorta was individually stained with Sudan IV, and photographed for the extent of atherosclerotic lesions. Comparisons of percent atheroscledrotic lesions on the luminal surface between the groups enabled evaluation of the effect of tricine test article on atherosclerosis in this rabbit model.

Data set [4] deals with Mongolian gerbils. Briefly: gerbil forebrain ischemia (bilateral carotid occlusion): locomotor activity. The format is in vivo, Mongolian gerbil. Conditions: individual gerbil, Group 3, approximately 96 hours after surgery. The method, then:
Mongolian gerbils are subjected to bilaterial occlusion of carotid arteries to cause complete forebrain ischemia. The Mongolian gerbil is extensively used as a model of cerebral ischemia because of its unusual cerebral circulation resulting in sensitive and pronounced destruction of hippocampal neuron cells. as a result, bilateral occlusion of carotid arteries causes complete forebrain ischemia. The gerbils were divided into three groups, Group 1 gerbils were sham control and were administered vehicle (control) orally without carotid occlusion. Group 2 received oral tricine treatment at 2000 mg/Kg in vehicle solution both 60 minutes before and after carotid occlusion. […] The arteries were occluded after a midline cervical incision was made to expose both common carotid arteries. The surgery was performed on a heated surface to maintain body temperature. On completion of surgery, the animals were placed on Vetbed® and allowed to recover under a heat lamp. (Group 1) was subjected to the same surgical procedures except that the carotid arteries were not occluded. The day of surgery is identified as Day 1. At approximately 96 hours after surgery, animals were tested for changes in locomotor activity, over two (2) consecutive periods of 15 minutes, using an automated cage. The automated cages contained photoactivated beams at two (2) positions (a low height and a high height) that recorded the number of crossings each gerbil made in each of two consecutive 15 minute periods.

Data set [5] deals with rats. The note with it: both, rat, in vivo, po, 14 days. The method, then: It is essential that any amino-acid-based compound used in accordance with the present invention have a low toxicity such that internal use in humans and other mammals is safe and well tolerated. Amino acid-based compounds used in accordance with the invention generally display no acute toxic effects at 1000 mg/Kg in rats after 2 weeks following oral administration. Preferably, amino acid-based compounds used in accordance with the present invention will display no effects at oral doses of at least 2000 mg/Kg in rats. […] For example, a cohort of rats can be fed a given dosage of an amino acid-based compound of general formula (I) and the relative toxic effects of the cohort can be monitored in comparison to a cohort fed a normal diet using standard EPA protocols.
Two cohorts of rats, each consisting of five females and five males, were marked and weighed. Each rat in a single cohort was administered 2000 mg/kg of tricine in a single oral dosage. Survival and body weight of the rats in each cohort was evaluated after 14 days to determine relative acute toxicity. Survival and general pathology was identical for both the control cohort and the tricine-treated cohort.

The subject of data set [6] is hippocampal neurons, CA1 area. Briefly: gerbil forebrain ischemia (bilateral carotid occlusion): histology of CA1 neuronal damage. Type of data set: in vivo, Mongolian gerbil. Further details: scale not given here. The note with it: Group 3, 6 animals examined.
The test system of data set [7] is hippocampal neurons, CA1 area. The description is as above. Further details: Total Rating, severity of neuronal damage to CA1 area, individual gerbil: scale not given here. Conditions: oral tricine 2000 mg/Kg 60 minutes before and after carotid occlusion, day 5. The format is in vivo, Mongolian gerbil. The procedure:
Mongolian gerbils are subjected to bilaterial occlusion of carotid arteries to cause complete forebrain ischemia. The Mongolian gerbil is extensively used as a model of cerebral ischemia because of its unusual cerebral circulation resulting in sensitive and pronounced destruction of hippocampal neuron cells. as a result, bilateral occlusion of carotid arteries causes complete forebrain ischemia. The gerbils were divided into three groups, Group 1 gerbils were sham control and were administered vehicle (control) orally without carotid occlusion. Group 2 received oral tricine treatment at 2000 mg/Kg in vehicle solution both 60 minutes before and after carotid occlusion. Group […] gerbils received vehicle (control) 60 minutes before and after occlusion. The arteries were occluded after a midline cervical incision was made to expose both common carotid arteries. The surgery was performed on a heated surface to maintain body temperature. On completion of surgery, the animals were placed on Vetbed® and allowed to recover under a heat lamp. (Group 1) was subjected to the same surgical procedures except that the carotid arteries were not occluded. The day of surgery is identified as Day 1. Animals were killed on day 5, after completion of locomotor testing, by overdose with anaesthetic and perfusion with saline followed by a solution containing 10% neutral buffered formalin to fix the brain in situ. The brains were removed by dissection, 5 μm sections were taken at the level of the dorsal hippocampus, to coincide with CA1 area, and stained with haematoxylin and eosin. the sections were examined under light microscope, rated for severity of neuronal damage to the CA1 area.

Where [8] appears, read: 10 mM, time 0 hours, 37° C., average n=3, none 0.03.
Where [9] appears, read: 10 mM, time 3 hours, 37° C., average n=3, none 0.99.
The mark [10] stands for this setting: 1% tricine in drinking water, 1% cholesterol diet, Sudan IV stain.
The mark [11] stands for this setting: 1% tricine in drinking water, five rabbits, control mean 65.

On to `O=C(O)CN(CCO)CCO` [Bicine, N,N-bis(hydroxyethyl)glycine], for which the “FOX assay OD (LDL hydroperoxide)” value is on record as −0.02 in data set [1] (setting [8]); 0.02 in data set [1] (setting [9]); −0.010 in data set [1] (Bicine 25 μM, time 0 hours, room temperature, average n = 3); 0.050 in data set [1] (Bicine 25 μM, time 4 hours, room temperature, average n = 3, none 0.295); −0.007 in data set [1] (Bicine 50 μM, time 0 hours, room temperature, average n = 3); 0.030 in data set [1] (Bicine 50 μM, time 4 hours, room temperature, average n = 3, none 0.295). For the same compound, the “FOX assay OD (LDL hydroperoxide)” value was −0.002 in data set [1] (Bicine 100#M, time 0 hours, room temperature, average n = 3) and 0.04 in data set [1] (Bicine 100#M, time 4 hours, room temperature, average n = 3, none 0.295).

`O=C(O)CNCCO` [Monocine, N-hydroxyethyl glycine]: the “FOX assay OD (LDL hydroperoxide)” value in data set [1] (setting [8]) is −0.04; in data set [1] (setting [9]), 0.05.

As to `O=C(O)CNC(CO)(CO)CO` [Tricine, N-tris(hydroxymethyl)methyl glycine], the “locomotor activity, beam crossings, High beam, 15 min” value in data set [2] is 56 and 44 (2×) and 67 and 55 and 110. For the same compound, the “Arch Area, percent atherosclerotic lesions on luminal surface, individual rabbit” value in data set [3] (setting [10]) was 19% and 39% and 27% and 17% and 22%. Moreover, in data set [3] (setting [10]), the “Descending Area, percent atherosclerotic lesions on luminal surface, individual rabbit” value was 21% (2×) and 28% and 8% and 17%. In addition, the “Total Area, percent atherosclerotic lesions on luminal surface, individual rabbit” value in data set [3] (setting [10]) was 20% and 38% and 26% and 14% and 21%. For the same compound, in data set [3] (1% tricine in drinking water, five rabbits, control mean 63), the “Arch Area, Mean Value” is 25%. For the same compound, the “Descending Area, Mean Value” in data set [3] (setting [11]) amounted to 19%. In addition, in data set [3] (setting [11]), the “Total Area, Mean Value” is reported as 24%. Besides, in data set [3] (1% tricine in drinking water, five rabbits, control median 65), the “Arch Area, Median Value” was determined as 22%. For the same compound, in data set [3] (1% tricine in drinking water, five rabbits, control median 67), the “Total Area, Median Value” was determined as 21%. Moreover, the “Descending Area, Median Value” in data set [3] (1% tricine in drinking water, five rabbits, control median 68) is 21%. In addition, the “reduced plaque deposits in the aorta” value in data set [3] (tricine treated rabbits versus control group) is listed as 63%. The “locomotor activity, beam crossings, High beam, Total” value in data set [4] is 71 and 51 and 76 and 56 and 174. Also, in data set [4], the “locomotor activity, beam crossings, Low beam, Total” value was 665 and 691 and 525 and 615 and 727 and 451. The “locomotor activity, beam crossings, Low beam, 15 min” value in data set [4] (first 15 minute period) is 455 and 559 and 456 and 553 and 543 and 372. Besides, the “locomotor activity, beam crossings, High beam, 30 min” value in data set [4] (second 15 minute period) is 15 and 7 and 9 and 16 and 12 and 64. For the same compound, the “locomotor activity, beam crossings, Low beam, 30 min” value in data set [4] (second 15 minute period) was 210 and 132 and 69 and 62 and 184 and 79. Also, the “FOX assay OD (LDL hydroperoxide)” value in data set [1] (setting [8]) is −0.01; in data set [1] (setting [9]), 0.05; in data set [1] (Tricine 25 μM, time 0 hours, room temperature, average n = 3) it was −0.012; in data set [1] (Tricine 25 μM, time 4 hours, room temperature, average n = 3, none 0.295), 0.061; in data set [1] (Tricine 50 μM, time 0 hours, room temperature, average n = 3) it was −0.007; in data set [1] (Tricine 50 μM, time 4 hours, room temperature, average n = 3, none 0.295) it was 0.038. The “FOX assay OD (LDL hydroperoxide)” value was found to be 0.0645 in data set [1] (Tricine 100 μM, time 0 hours, room temperature, average n = 3) and 0.028 in data set [1] (Tricine 100 μM, time 4 hours, room temperature, average n = 3, none 0.295). Moreover, the “preliminary acute toxicity level” value in data set [5] is above 2000 mg/kg. Moreover, the “Mean Score for Group” value in data set [6] (occluded vehicle Group 7: 4.3) came out at 2.5. For the same compound, the “Total Score for Group” value in data set [6] (occluded vehicle Group 7: 13 (3 animals)) came to 15. Further, the “Side 1 Rating, severity of neuronal damage to CA1 area, individual gerbil” value in data set [7] was 3 (Marked→approximately 75% to 100% of neurons damaged) and 1 (Minimal→up to approximately 25% of neurons damaged) (5×). Further, the “Side 2 Rating, severity of neuronal damage to CA1 area, individual gerbil” value in data set [7] is 3 (Marked→approximately 75% to 100% of neurons damaged) and 1 (Minimal→up to approximately 25% of neurons damaged) (4×) and 0. Besides, the “Total Rating, severity of neuronal damage to CA1 area, individual gerbil” value in data set [7] (sum of both sides) was 6 and 2 (4×) and 1.

Source of the values: patent publication US6346547B1, “N-substituted amino acids, antioxidant pharmaceutical compositions containing n-substituted amino acids and methods for preventing cardiovascular diseases and/or preventing and/or treating antioxidant responsive diseases therewith” (Checkpoint, Genetics, Inc., priority 1999, dated 2002).
